The nature of data set [1]: in vitro. The settings on record: human, SH-SY5Y cells.
Description: Neurotoxicity in human SH-SY5Y cells assessed as cell viability at 25 uM after 24 hrs by XTT assay relative to control
Data set [2] addresses Acetylcholinesterase (Electrophorus electricus) (UniProt O42275). In words: Inhibition of electric eel AChE-induced amyloid beta (1 to 40) aggregation at 25 uM measured every 24 hrs for 7 days by Thioflavin T based fluorometric assay relative to control.
In data set [3] the test system is SH-SY5Y. In words: Neuroprotective activity in human SH-SY5Y cells assessed as reversal of 20 nM okadaic acid-induced cell death at 1 to 10 uM after 24 hrs by XTT assay. In kind it is functional, cell-based. For orientation: Tetrazolium assays rely on reduction of a dye to a coloured formazan, in cell work by metabolically active cells.
Data set [4] has as its target T1, Acetylcholinesterase (Electrophorus electricus, UniProt O42275). In words: Mixed-type inhibition of electric eel AChE using acetylthiocholine as substrate preincubated for 15 mins followed by substrate addition by Dixon plot analysis.
The target in data set [5] is Acetylcholinesterase (Homo sapiens) (UniProt P22303). In words: Inhibition of AChE in human SH-SY5Y cells assessed as inhibition of amyloid beta (1 to 40) (unknown origin)-induced tau phosphorylation at Ser-396 residue at 5 to 10 uM after 48 hrs by Western blot analysis. It is filed as cell-based. A general note: A western blot detects proteins with antibodies after separation by electrophoresis.

The nature of data set [6]: in vitro. The settings on record: human, SH-SY5Y cells. This is another data set of the same source.
Description: Neurotoxicity in human SH-SY5Y cells assessed as cell viability at 0.1 uM after 24 hrs by XTT assay relative to control
Data set [7] concerns the target T1, Acetylcholinesterase.
Description: Inhibition of electric eel AChE using acetylcholine as substrate preincubated for 15 mins followed by substrate addition by Ellman's method
The subject of data set [8] is SH-SY5Y. The data set can be described thus: Neuroprotective activity in human SH-SY5Y cells assessed as reversal of 15 nM okadaic acid-induced cell death at 1 to 10 uM after 24 hrs by XTT assay. In kind it is functional, cell-based.
The target in data set [9] is Acetylcholinesterase (Homo sapiens) (UniProt P22303). In words: Inhibition of AChE in human SH-SY5Y cells assessed as inhibition of amyloid beta (1 to 40) (unknown origin)-induced amyloid beta aggregation at 5 to 10 uM measured every 24 hrs for 7 days by Thioflavin T based fluorometric assay. It is filed as cell-based.
The test system of data set [10] is SH-SY5Y. In words: Neuroprotective activity against amyloid beta (1 to 40)-induced cell death in human SH-SY5Y cells at 10 uM after 48 hrs by phase contrast microscopic analysis. It is filed as functional, cell-based.
Data set [11] can be described thus: in vitro. The settings on record: human, HepG2 cells.
The nature of data set [12]: in vitro. The conditions noted are these: human, SH-SY5Y cells. This is another data set of the same source.
Description: Neurotoxicity in human SH-SY5Y cells assessed as cell viability at 50 uM after 24 hrs by XTT assay relative to control
Data set [13] in a line: in vitro. The settings on record: human, SH-SY5Y cells. The source holds these as a separate data set.
Description: Neurotoxicity in human SH-SY5Y cells assessed as cell viability at 1 uM after 24 hrs by XTT assay relative to control
Data set [14] relates to SH-SY5Y. The data set can be described thus: cells. The conditions noted are these: Homo sapiens, 24 h.
Description: Neuroprotective activity against rotenone/oligomycin-A-induced cell death in human SH-SY5Y cells assessed as increase in cell viability after 24 hrs by XTT assay
The target of data set [15] is Acetylcholinesterase (Electrophorus electricus) (UniProt O42275). The settings on record: 25 uM.
Description: Inhibition of electric eel AChE-induced amyloid beta (1 to 40) aggregation at 25 uM measured every 24 hrs for 7 days by Thioflavin T based fluorometric assay relative to propidium iodide
The test system of data set [16] is SH-SY5Y. The data set can be described thus: Neuroprotective activity against amyloid beta (1 to 40)-induced cell death in human SH-SY5Y cells assessed as increase in cell viability at 10 uM after 48 hrs by XTT assay. It is filed as functional, cell-based.
The subject of data set [17] is SH-SY5Y. In words: Neuroprotective activity against 20 nM okadaic acid-induced cell death in human SH-SY5Y cells at 5 to 10 uM after 24 hrs by phase contrast microscopic analysis. In kind it is functional, cell-based.
Data set [18] in a line: in vitro. The settings on record: human, SH-SY5Y cells. The source holds these as a separate data set.
Description: Neurotoxicity in human SH-SY5Y cells assessed as cell viability at 10 uM after 24 hrs by XTT assay relative to control
Data set [19] is described as follows: in vitro. The conditions noted are these: human, SH-SY5Y cells. The source holds these as a separate data set.
Description: Neurotoxicity in human SH-SY5Y cells assessed as cell viability at 5 uM after 24 hrs by XTT assay relative to control
The nature of data set [20]: in vitro. The conditions noted are these: human, HepG2 cells. This is another data set of the same source.
Description: Hepatotoxicity in human HepG2 cells assessed as reduction in cell viability by MTT assay
Data set [21] deals with Cholinesterase (Equus caballus) (UniProt P81908). The data set can be described thus: Inhibition of horse serum BuChE using […] as substrate at 50 uM preincubated for 15 mins followed by substrate addition by Ellman's method relative to control. For orientation: In Ellman's method for cholinesterases, released thiocholine reacts with DTNB.

Each structure is given as a SMILES string. Active and inactive are the calls of the source. The calls are words filed in the database; no cut-off is given here.

Sequence of Acetylcholinesterase (Homo sapiens) (P22303 whole entry): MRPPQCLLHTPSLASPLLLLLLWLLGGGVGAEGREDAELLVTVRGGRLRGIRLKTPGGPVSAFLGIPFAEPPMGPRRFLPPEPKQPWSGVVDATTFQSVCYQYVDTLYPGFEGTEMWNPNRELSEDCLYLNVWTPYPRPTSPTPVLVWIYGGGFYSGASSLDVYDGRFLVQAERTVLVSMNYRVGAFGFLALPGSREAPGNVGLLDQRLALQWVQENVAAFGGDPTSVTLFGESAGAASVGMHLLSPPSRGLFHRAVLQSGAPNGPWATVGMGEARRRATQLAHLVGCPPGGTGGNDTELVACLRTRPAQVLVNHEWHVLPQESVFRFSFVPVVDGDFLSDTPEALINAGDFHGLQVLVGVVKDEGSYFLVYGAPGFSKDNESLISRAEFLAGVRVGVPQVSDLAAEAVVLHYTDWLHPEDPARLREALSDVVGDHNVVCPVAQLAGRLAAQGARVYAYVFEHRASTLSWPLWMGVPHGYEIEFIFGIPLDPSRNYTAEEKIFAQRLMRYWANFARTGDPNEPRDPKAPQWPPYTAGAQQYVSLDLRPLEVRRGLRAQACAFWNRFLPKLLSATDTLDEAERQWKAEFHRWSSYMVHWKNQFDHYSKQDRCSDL
T1 sequence (O42275 whole entry): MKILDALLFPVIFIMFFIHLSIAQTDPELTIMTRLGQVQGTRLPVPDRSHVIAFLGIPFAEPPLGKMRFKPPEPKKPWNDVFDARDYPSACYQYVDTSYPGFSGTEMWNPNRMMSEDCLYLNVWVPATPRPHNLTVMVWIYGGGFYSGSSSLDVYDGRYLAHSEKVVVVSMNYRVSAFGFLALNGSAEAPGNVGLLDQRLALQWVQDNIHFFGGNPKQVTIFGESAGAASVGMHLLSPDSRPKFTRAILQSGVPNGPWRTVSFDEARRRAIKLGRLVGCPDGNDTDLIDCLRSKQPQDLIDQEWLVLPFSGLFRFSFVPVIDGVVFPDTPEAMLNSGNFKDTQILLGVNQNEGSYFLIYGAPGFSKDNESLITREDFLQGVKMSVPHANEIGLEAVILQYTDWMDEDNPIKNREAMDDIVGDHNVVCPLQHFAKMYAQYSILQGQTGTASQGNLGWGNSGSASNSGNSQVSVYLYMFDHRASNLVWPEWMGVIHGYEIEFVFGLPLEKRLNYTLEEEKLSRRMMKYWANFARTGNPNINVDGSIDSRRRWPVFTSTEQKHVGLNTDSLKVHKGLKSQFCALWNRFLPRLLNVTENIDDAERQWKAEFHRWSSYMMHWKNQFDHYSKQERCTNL
Sequence of Acetylcholinesterase (Electrophorus electricus) (O42275 24-633 limits assumed): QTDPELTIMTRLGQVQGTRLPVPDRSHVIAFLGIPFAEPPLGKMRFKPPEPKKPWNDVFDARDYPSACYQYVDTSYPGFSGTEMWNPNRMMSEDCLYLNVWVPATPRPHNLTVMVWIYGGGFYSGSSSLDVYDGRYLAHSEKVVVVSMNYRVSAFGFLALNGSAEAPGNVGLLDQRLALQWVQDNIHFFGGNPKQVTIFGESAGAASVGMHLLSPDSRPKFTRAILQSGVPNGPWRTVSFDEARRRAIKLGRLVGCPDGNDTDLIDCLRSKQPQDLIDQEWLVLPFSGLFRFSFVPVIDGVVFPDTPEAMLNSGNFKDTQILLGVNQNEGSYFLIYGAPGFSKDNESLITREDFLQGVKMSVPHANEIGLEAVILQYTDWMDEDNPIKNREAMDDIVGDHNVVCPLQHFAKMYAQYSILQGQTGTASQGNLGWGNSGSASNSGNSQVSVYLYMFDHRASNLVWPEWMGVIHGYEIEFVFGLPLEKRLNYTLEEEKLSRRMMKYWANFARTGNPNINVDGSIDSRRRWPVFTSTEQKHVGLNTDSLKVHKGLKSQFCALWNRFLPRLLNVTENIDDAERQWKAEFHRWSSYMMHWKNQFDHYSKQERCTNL
Sequence of Cholinesterase (Equus caballus) (P81908 whole entry): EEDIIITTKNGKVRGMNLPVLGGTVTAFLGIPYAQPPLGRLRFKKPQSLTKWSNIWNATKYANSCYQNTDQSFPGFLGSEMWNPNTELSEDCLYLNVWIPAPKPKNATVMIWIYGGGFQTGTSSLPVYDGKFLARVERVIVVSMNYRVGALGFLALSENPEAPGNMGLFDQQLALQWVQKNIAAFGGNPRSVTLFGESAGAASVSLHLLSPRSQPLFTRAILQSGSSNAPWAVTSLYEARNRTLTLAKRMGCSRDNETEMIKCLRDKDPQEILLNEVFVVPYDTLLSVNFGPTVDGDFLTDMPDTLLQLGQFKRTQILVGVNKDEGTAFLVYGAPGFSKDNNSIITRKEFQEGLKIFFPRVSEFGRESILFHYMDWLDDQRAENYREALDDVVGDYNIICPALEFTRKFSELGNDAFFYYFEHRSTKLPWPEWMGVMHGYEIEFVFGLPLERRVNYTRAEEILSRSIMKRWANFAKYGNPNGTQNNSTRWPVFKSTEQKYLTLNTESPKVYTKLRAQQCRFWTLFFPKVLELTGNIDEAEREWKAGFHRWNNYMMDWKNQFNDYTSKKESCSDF

By viability is commonly meant a read-out of living cells in per cent, often relative to untreated cells. The inhibition is the relative decrease from the control value, in per cent. What is called Ki is the equilibrium dissociation constant of an inhibitor or competing ligand from its target. One may read the IC50 as the midpoint of a concentration-inhibition curve. The EC50 is the concentration that produces a half-maximal response. A lower EC50 goes with an effect from little substance. For the compound `COC(=O)C1=C(C)Oc2nc3c(c(N)c2C1c1cc2ccc(OC)cc2nc1Cl)CCCC3` (stereo unspecified), the viability at 24 h, 25 µM in data set [1] came to 133%. The inhibition was determined as 75% in [2], 65% in [15] and 50% in data set [21]. The result in [3], in data set [8], in data set [10], in [16] and in data set [17] was Active. Also, the Ki in [4] is 14.2 nM. The inhibition entry in data set [5] and in data set [9] was “Active” in each case. Besides, in data set [6], the viability at 24 h, 0.1 µM amounted to 128%. In [7], this compound had an IC50 of 470 nM. In [11], the selectivity ratio worked out at 3.4. Moreover, the viability at 24 h, 50 µM in data set [12] was found to be 82.5%. For the same compound, in [13], the viability at 24 h, 1 µM amounted to 105%. The EC50 turned out to be 630 nM in [14] and 622000 nM in [20]. Besides, the viability at 24 h, 10 µM in [18] was 113%. Moreover, the viability at 24 h, 5 µM in data set [19] stood at 132%.

The values above are taken from ChEMBL document CHEMBL3822376, “Potent anticholinesterasic and neuroprotective pyranotacrines as inhibitors of beta-amyloid aggregation, oxidative stress and tau-phosphorylation for Alzheimer's disease” (Eur J Med Chem, 2016).
